{"source": "patent US20230372364A1", "about": "“METHOD OF TREATING GABA MEDIATED DISORDERS” (Eliem Therapeutics (UK) Ltd, priority 2020, published 2023)", "key": {"[1]": {"assay": "Single ascending oral dose pharmacokinetics in humans", "format": "in vivo", "settings": "human", "method": "The pharmacokinetic properties of CV-10155 in humans were analyzed. Subjects were given a single oral dose of CV-10155, and plasma concentrations were measured at various time points. Various dosages were given to fasting subjects, and 30 mg dose was given to a subjects in a fed state.\nFIG. 15 is a graph of the average plasma concentration of CV-10155 following oral administration to humans. Purple circles represent 5 mg, fasted; green diamonds represent 15 mg, fasted; red squares represent 30 mg fasted; blue triangles represent 30 mg, fed; purple crosses represent 60 mg, fasted; teal 5-pointed stars represent 90 mg, fasted; olive 6-pointed stars represent 135 mg, fasted; and brown 10-pointed stars represent 200 mg fasted.\nFIG. 16 is a graph of the average plasma concentration of CV-10155 following oral administration of a 30 mg dose to humans. Blue triangles represent fasted; and red circles represent fed.\nThe pharmacokinetic properties of CV-10155 and Sage-217 in humans were compared. The day 7 from subjects given either 60 mg CV-10155 in the morning in a fasted state or 30 mg Sage-217 were analyzed. Results from multiple ascending dose studies are shown in Table 10, and results from single ascending dose studies are shown in Table 11."}, "[2]": {"test_system": "human subjects", "assay": "Single ascending oral dose safety and tolerability in humans", "format": "in vivo"}}}
{"smiles": "C[C@@]1(O)CC[C@@]2(C)[C@@H](CC[C@@H]3[C@@H]2CC[C@]2(C)[C@@H](C(=O)Cn4cc(C#N)cn4)CC[C@@H]32)C1", "note": "[CV-10155, 1-[2-[(3R,5S,8R,9S,10S,13S,14S,17S)-3-hydroxy-3,10,13-trimethyl-1,2,4,5,6,7,8,9,11,12,14,15,16,17-tetradecahydrocyclopenta[a]phenanthren-17-yl]-2-oxoethyl]pyrazole-4-carbonitrile]", "values": [{"measurement": "effect of food consumption on absorption", "setting": "[1]; 30 mg oral, fed vs fasted", "result": "no clinically meaningful effect"}, {"measurement": "Tmax", "setting": "[1]; 135 mg SAD MTD", "result": 2.83, "unit": "h"}, {"measurement": "Tmax", "setting": "[1]; single oral dose, 5-200 mg", "result": "2 to 4", "unit": "h"}, {"measurement": "half-life", "setting": "[1]; single oral dose, 5-200 mg", "result": "24 to 26", "unit": "h"}, {"measurement": "inter-subject variability (CV) of AUC and Cmax", "setting": "[1]; single oral dose, 5-200 mg", "result": "≤ 30", "unit": "%"}, {"measurement": "dose proportionality of AUC and Cmax", "setting": "[1]; single oral dose, 5-200 mg dose range", "result": "dose-proportional increase"}, {"measurement": "dose-limiting adverse event", "setting": "[2]", "result": "Ataxia"}, {"measurement": "SAD MTD", "setting": "[2]; single ascending dose", "result": "ETX-155 135 mg SAD MTD"}, {"measurement": "adverse events observed at 200 mg", "setting": "[2]; single oral dose 200 mg, fasted", "result": "ataxia, tremor and tachycardia"}, {"measurement": "most common adverse events", "setting": "[2]; single oral dose, mild to moderate, only observed at the highest doses", "result": "Dizziness and somnolence"}, {"measurement": "dose-limiting adverse events", "setting": "[2]; single oral dose, range of 5-135 mg", "result": "No dose-limiting adverse events were observed"}]}
